Assay results from ChEMBL document CHEMBL5209563, “FFN206 based assay for SLC18A1 using HEK-293 SLC18A1 OE cells” (2022).
Calls of active or inactive are those of the source. The rule behind the calls is not given here.

Target: T1, Chromaffin granule amine transporter (Homo sapiens, UniProt P54219)
T1 sequence (P54219 whole entry): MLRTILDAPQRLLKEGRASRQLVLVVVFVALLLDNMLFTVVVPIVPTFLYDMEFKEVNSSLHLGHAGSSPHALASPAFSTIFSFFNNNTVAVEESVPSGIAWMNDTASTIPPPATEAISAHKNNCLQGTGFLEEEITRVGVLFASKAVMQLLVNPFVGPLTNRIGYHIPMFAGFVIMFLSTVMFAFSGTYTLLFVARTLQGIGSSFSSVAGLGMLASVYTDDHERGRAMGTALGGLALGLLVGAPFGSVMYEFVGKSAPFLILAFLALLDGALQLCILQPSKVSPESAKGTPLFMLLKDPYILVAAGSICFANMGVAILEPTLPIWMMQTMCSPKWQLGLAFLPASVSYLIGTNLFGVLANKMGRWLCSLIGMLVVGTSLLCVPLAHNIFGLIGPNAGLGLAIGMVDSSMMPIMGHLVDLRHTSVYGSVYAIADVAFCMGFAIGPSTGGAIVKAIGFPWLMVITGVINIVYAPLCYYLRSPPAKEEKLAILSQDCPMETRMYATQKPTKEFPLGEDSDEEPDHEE
Experiment: Substrate uptake and inhibition of the chromaffin granule amine transporter (VAT1, VMAT1, SLC18A1) as assessed by uptake of a fluorescent substrate (FFN206) in HEK-293 JumpIN-SLC18A1 cells (PubChem AID: 1794818)
Format: functional, cell-based, HEK293

Structure (SMILES) | IC50 | EC50 [nM]
COc1cc2c(cc1OC)C1CC(=O)C(CC(C)C)CN1CC2 (stereo not drawn) [TETRABENAZINE] | > 10000 nM (inactive) | 
CNc1ccc2c(CCN)cc(=O)oc2c1 |  | 2000
COC(=O)[C@H]1[C@H]2C[C@@H]3c4[nH]c5cc(OC)ccc5c4CCN3C[C@H]2C[C@@H](OC(=O)c2cc(OC)c(OC)c(OC)c2)[C@@H]1OC [RESERPINE] | 50 nM | 
